Values of other authors as cited in patent US6790965B1, “Combinatorial dihydrobenzopyran library” (Pharmacopeia Drug Discovery, Inc., priority 1994, dated 2004).

Biological target: bovine carbonic anhydrase (Bos taurus, UniProt P00921)
Settings: relatively weak inhibitor, displaced by increased dansylamide concentration

Sequence of bovine carbonic anhydrase (P00921 whole entry): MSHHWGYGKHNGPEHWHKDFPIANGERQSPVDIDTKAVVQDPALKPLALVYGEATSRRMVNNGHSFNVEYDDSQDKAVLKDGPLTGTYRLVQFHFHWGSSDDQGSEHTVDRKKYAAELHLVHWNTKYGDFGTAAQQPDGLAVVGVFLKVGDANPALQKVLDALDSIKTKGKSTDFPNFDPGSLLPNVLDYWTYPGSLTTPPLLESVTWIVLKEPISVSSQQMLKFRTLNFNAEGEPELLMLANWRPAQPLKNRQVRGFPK

In the case of NS(=O)(=O)c1cc2c(cc1Cl)N=CNS2(=O)=O [chlorothiazide], the Ki is given as roughly 75 nM.
